Reference: patent US10405750B2, “Nonradiative voltage-sensitive dye for imaging neuronal action potential” (Washington University, priority 2014, dated 2019)

How the values were obtained:
[1] = commercially available dyes to be tested; cited from earlier work

| Structure (SMILES) | Abs.: peak absorption wavelength [1] [nm] | further results |
| --- | --- | --- |
| Nc1ccncc1 [4-AP, 4-am inopyridine] |  | PA waveforms (DPA-stained cortex) after 4-AP (mouse brains; mouse, in vivo): large-amplitude high-frequency waveforms consistent with epileptiform discharges; behavioural effect in mice (mouse brains; mouse, in vivo): signs of convulsions |
| CCN(CC)c1ccc2cc(/C=C/c3cc[n+](CC[N+](C)(C)C)cc3)ccc2c1.[Br-].[Br-] [Di-2-ANEPEQ] | 517 |  |
| CCCCCCCCCCCCN(CCCCCCCCCCCC)c1ccc2cc(/C=C/c3cc[n+](CCC[N+](C)(C)C)cc3)ccc2c1.[Br-].[Br-] [Di-12-ANEPPQ] | 519 |  |
| CCCCN1C(=O)/C(=C/C=C/C=C2/C=CN(CCCCS(=O)(=O)[O-])c3ccccc32)SC1=S.[Na+] [NK 2761] | 716 |  |
| CCCCN(CCCC)c1ccc(/C=C/C=C/c2cc[n+](CCCCS(=O)(=O)[O-])cc2)cc1 [RH 160] | 530 |  |
| CCCCN(CCCC)c1ccc(/C=C/C=C/C=C/c2cc[n+](CCCCS(=O)(=O)[O-])cc2)cc1 [RH 237] | 528 |  |
| CCN(CC)c1ccc(/C=C/C=C/c2cc[n+](CCC[N+](CC)(CC)CC)cc2)cc1.[Br-].[Br-] [RH 414] | 532 |  |
| CCN(CC)c1ccc(/C=C/C=C/c2cc[n+](CC(O)C[N+](C)(C)CCO)cc2)cc1.[Br-].[Br-] (stereo not shown) [RH 795] | 530 |  |
| FC(F)OC(Cl)C(F)(F)F (stereo not shown) [isoflurane] |  | PA signal (DPA-stained cortex) after prolonged isoflurane (mouse brains; 5% isoflurane, prolonged exposure (30 minutes), after 4-AP): suppression of photoacoustic signal change |
